In patent US20070099877A1, “N-aryl-thienopyrimidin-4-amines and analogs as activators of caspases and inducers of apoptosis and the use thereof” (Cytovia, Inc., priority 2005, published 2007):
Where a name gives a salt, the structure may show the parent alone. Read-outs that look alike come from different tables or passages of the source.

Legend:
Type in all cases: cell-based
[1] = tested on: human breast cancer cell line T-47D; assay: Caspase cascade activation (DEVD-R110 fluorogenic substrate) in T-47D cells; details: Homo sapiens, T47D
Description: (§1) Human breast cancer cell line T-47D, human lung cancer cell line H1299, human hepatocellular carcinoma cell line SNU398, human colon carcinoma cell line HCT116 were grown according to media component mixtures designated by American Type Culture Collection+10% FCS (Invitrogen Corporation), in a 5% CO2-95% humidity incubator at 37° C. T-47D and H1299 cells were maintained at a cell density between 50 and 80% confluency at a cell density of 0.1 to 0.6×10^6 cells/mL. Cells were harvested at 600×g and resuspended at 0.65×10^6 cells/mL into appropriate media+10% FCS. An aliquot of 22.5 μL of cells was added to a well of a 384-well microtiter plate containing 2.5 μL of a 10% DMSO in RPMI-1640 media solution containing 0.16 to 100 μM of N-(2,5-dimethoxyphenyl)-2-methylthieno[3,2-d]pyrimidin-4-amine or other test compound (0.016 to 10 μM final). An aliquot of 22.5 μL of cells was added to a well of a 384-well microtiter plate containing 2.5 μL of a 10% DMSO in RPMI-1640 media solution without test compound as the control sample. The samples were mixed by agitation and then incubated at 37° C. for 24 h or 48 h in a 5% CO2-95% humidity incubator. After incubation, the samples were removed from the incubator and 25 μL of a solution containing 14 μM of N-(Ac-DEVD)-N′-ethoxycarbonyl-R110 (SEQ ID NO.:1) fluorogenic substrate (Cytovia, Inc.; WO99/18856), 20% sucrose (Sigma), 20 mM DTT (Sigma), 200 mM NaCl (Sigma), 40 mM Na PIPES buffer pH 7.2 (Sigma), and 500 μg/mL lysolecithin (Calbiochem) was added. The samples were mixed by agitation and incubated at room temperature. Using a fluorescent plate reader (Model SPECTRAfluor Plus, Tecan), an initial reading (T=0) was made approximately 1-2 min after addition of the substrate solution, employing excitation at 485 nm and emission at 530 nm, to determine the background fluorescence of the control sample. After the 3 h incubation, the samples were read for fluorescence as above (T=3 h).
(§2) The Relative Fluorescence Unit values (RFU) were used to calculate the sample readings as follows: RFU(T=3h)−Control RFU(T=O)=Net RFU(T=3h)
(§3) The activity of caspase cascade activation was determined by the ratio of the net RFU value for N-(2,5-dimethoxyphenyl)-2-methylthieno[3,2-d]pyrimidin-4-amine or other test compound to that of control samples. The EC50 (nM) was determined by a sigmoidal dose-response calculation (Prism 3.0, GraphPad Software Inc.).

[2] = tested on: human lung cancer cell line H1299; assay: Caspase cascade activation in H1299 cells; details: NCI-H1299, 24 h, read-out: Caspase activation Potency EC50 H1299 (24 h)
Description: as §1, §2, §3

[3] = tested on: human hepatocellular carcinoma cell line SNU398; assay: Caspase cascade activation in SNU398 cells; details: Homo sapiens, SNU-398, 48 h, read-out: Caspase activation Potency EC50 SNU398 (48 h)
Description: as §1, §2, §3

[4] = tested on: human colon carcinoma cell line HCT116; assay: Caspase cascade activation in HCT116 cells; details: Homo sapiens, HCT-116, 48 h, read-out: Caspase activation Potency EC50 HCT116 (48 h)
Description: as §1, §2, §3

[5] = 24 h, T47D cells, 24 h, read-out: Caspase activation Potency EC50 T47D (24 h)
[6] = 48 h, T-47D cells, 48 h, read-out: Caspase activation Potency EC50 T-47D (48 h)

SMILES	EC50 [1, 5]	EC50 [1, 6]	EC50 [2]	EC50 [3]	EC50 [4]
COc1ccccc1Nc1ncnc2ccsc12 [Example 4, N-(2-Methoxyphenyl)thieno[3,2-d]pyrimidin-4-amine]	> 10000 nM	> 10000 nM	> 10000 nM	> 10000 nM	> 10000 nM
COc1ccc(OC)c(Nc2nc(C)nc3scc(C)c23)c1 [Example 7, N-(2,5-Dimethoxyphenyl)-2,5-dimethylthieno[2,3-d]pyrimidin-4-amine hydrochloride]	> 10000 nM	> 10000 nM	> 10000 nM	> 10000 nM	> 10000 nM
COc1ccc(Nc2ncnc3ccsc23)c(OC)c1 [Example 8, N-(2,4-Dimethoxyphenyl)thieno[3,2-d]pyrimidin-4-amine hydrochloride]	> 10000 nM	> 10000 nM	> 10000 nM	> 10000 nM	> 10000 nM
COc1cccc(Nc2ncnc3ccsc23)c1OC [Example 9, N-(2,3-Dimethoxyphenyl)thieno[3,2-d]pyrimidin-4-amine hydrochloride]	> 10000 nM	> 10000 nM	> 10000 nM	> 10000 nM	> 10000 nM
COc1cccc(Nc2ncnc3ccsc23)c1 [Example 11, N-(3-Methoxyphenyl)thieno[3,2-d]pyrimidin-4-amine hydrochloride]	555 nM	1190 nM	5370 nM	5730 nM	> 10000 nM
COc1cc(O)cc(Nc2ncnc3ccsc23)c1 [Example 44, N-(3-Hydroxy-5-methoxyphenyl)thieno[3,2-d]pyrimidin-4-amine]	1100 nM	–	2680 nM	–	–
COc1cc(Nc2ncnc3c(C)csc23)cc(OC)c1 [Example 46, N-(3,5-Dimethoxyphenyl)-7-methylthieno[3,2-d]pyrimidin-4-amine]	–	1520 nM	–	> 10000 nM	> 10000 nM
COc1cc(Nc2ncnc3sc(C)c(C)c23)cc(OC)c1 [Example 47, N-(3,5-Dimethoxyphenyl)-5,6-dimethylthieno[2,3-d]pyrimidin-4-amine]	–	> 10000 nM	–	> 10000 nM	> 10000 nM
COc1cc(Nc2ncnc3sc(C)cc23)cc(OC)c1 [Example 48, N-(3,5-Dimethoxyphenyl)-6-methylthieno[2,3-d]pyrimidin-4-amine]	–	1990 nM	–	> 10000 nM	> 10000 nM
COc1cc(Nc2ncnc3sc(-c4ccccc4)c(C)c23)cc(OC)c1 [Example 49, N-(3,5-Dimethoxyphenyl)-5-methyl-6-phenylthieno[2,3-d]pyrimidin-4-amine]	–	> 10000 nM	–	> 10000 nM	> 10000 nM
COc1cc(Nc2ncnc3scc(C)c23)cc(OC)c1 [Example 50, N-(3,5-Dimethoxyphenyl)-5-methylthieno[2,3-d]pyrimidin-4-amine]	–	4360 nM	–	≥ 10000 nM	≥ 10000 nM
COc1cc(Nc2nc(C)nc3scc(C)c23)cc(OC)c1 [Example 51, N-(3,5-Dimethoxyphenyl)-2,5-dimethylthieno[2,3-d]pyrimidin-4-amine]	–	2490 nM	–	2640 nM	3700 nM
COc1cc(Nc2ncnc3cc(I)sc23)cc(OC)c1 [Example 53, N-(3,5-Dimethoxyphenyl)-6-iodothieno[3,2-d]pyrimidin-4-amine]	–	723 nM	–	868 nM	2450 nM
COc1cc(Nc2ncnc3ccsc23)cc(C(F)(F)F)c1 [Example 56, N-(5-Methoxy-3-trifluoromethylphenyl)thieno[3,2-d]pyrimidin-4-amine]	–	1840 nM	–	1030 nM	2610 nM
Cc1cc(C)cc(Nc2ncnc3ccsc23)c1 [Example 57, N-(3,5-Dimethylphenyl)thieno[3,2-d]pyrimidin-4-amine]	–	> 10000 nM	–	> 10000 nM	> 10000 nM
COC(=O)c1cc(Nc2ncnc3ccsc23)cc(C(=O)OC)c1 [Example 58, Dimethyl 5-(thieno[3,2-d]pyrimidin-4-ylamino)benzene-1,3-dioate]	> 10000 nM	565 nM	–	168 nM	347 nM
COc1cc(Nc2ncnc3ccsc23)cc([N+](=O)[O-])c1 [Example 59, N-(3-Methoxy-5-nitrophenyl)thieno[3,2-d]pyrimidin-4-amine]	–	> 10000 nM	–	3260 nM	> 10000 nM
CS(=O)(=O)c1cc(Nc2ncnc3ccsc23)cc(S(C)(=O)=O)c1 [Example 60, N-(3,5-Bis(methylsulfonyl)phenyl)thieno[3,2-d]pyrimidin-4-amine]	–	> 10000 nM	–	> 10000 nM	> 10000 nM
COc1cc(N)cc(Nc2ncnc3ccsc23)c1 [Example 68, N-(3-Amino-5-methoxyphenyl)thieno[3,2-d]pyrimidin-4-amine]	–	2950 nM	–	5080 nM	> 10000 nM

Other lines, results leading:

EC50 [1, 5]	EC50 [1, 6]	EC50 [2]	EC50 [3]	EC50 [4]	SMILES
121 nM	311 nM	5000 nM	4660 nM	5550 nM	COc1ccc(OC)c(Nc2nc(C)nc3sccc23)c1 [Example 3, N-(2,5-Dimethoxyphenyl)-2-methylthieno[2,3-d]pyrimidin-4-amine]
65 nM	72 nM	5020 nM	1050 nM	5000 nM	COc1cc(Nc2ncnc3ccsc23)cc(OC)c1OC [Example 10, N-(3,4,5-Trimethoxyphenyl)thieno[3,2-d]pyrimidin-4-amine hydrochloride]
–	87 nM	–	> 10000 nM	> 10000 nM	COc1cc(Nc2ncnc3sccc23)cc(OC)c1 [Example 45, N-(3,5-Dimethoxyphenyl)thieno[2,3-d]pyrimidin-4-amine]
32 nM	33 nM	–	468 nM	82 nM	COc1cc(Nc2nc(C)nc3cc(Br)sc23)cc(OC)c1 [Example 52, N-(3,5-Dimethoxyphenyl)-6-bromo-2-methylthieno[3,2-d]pyrimidin-4-amine]
112 nM	99 nM	–	> 10000 nM	> 10000 nM	COc1cc(Nc2nc(C)nc3sccc23)cc(OC)c1 [Example 55, N-(3,5-Dimethoxyphenyl)-2-methylthieno[2,3-d]pyrimidin-4-amine]
–	320 nM	–	706 nM	1260 nM	COc1cc(Nc2nc(C)nc3ccsc23)cc(N(C)C)c1 [Example 63, N-(3-Dimethylamino-5-methoxyphenyl)-2-methylthieno[3,2-d]pyrimidin-4-amine]
–	131 nM	–	565 nM	1280 nM	COc1cc(Nc2ncnc3cc(Br)sc23)cc(N(C)C)c1 [Example 64, 6-Bromo-N-(3-dimethylamino-5-methoxyphenyl)thieno[3,2-d]pyrimidin-4-amine]
–	457 nM	–	354 nM	620 nM	COc1cc(Nc2nc(C)nc3ccsc23)cc(-n2cnnn2)c1 [Example 65, N-(3-Methoxy-5-(1H-tetrazol-1-yl)phenyl)-2-methylthieno[3,2-d]pyrimidin-4-amine]
–	65 nM	–	297 nM	498 nM	COc1cc(Nc2nc(C)nc3cc(Br)sc23)cc(N(C)C)c1 [Example 66, 6-Bromo-N-(3-dimethylamino-5-methoxyphenyl)-2-methylthieno[3,2-d]pyrimidin-4-amine]
–	227 nM	–	4950 nM	> 10000 nM	COc1cc(Nc2ncnc3cc(Br)sc23)cc(OC)c1 [Example 67, 6-Bromo-N-(3,5-dimethoxyphenyl)thieno[3,2-d]pyrimidin-4-amine]
–	486 nM	–	605 nM	1670 nM	COc1c(Br)c(N)c(Br)c(Nc2ncnc3ccsc23)c1Br [Example 73, N-(3-Amino-2,4,6-tribromo-5-methoxyphenyl)thieno[3,2-d]pyrimidin-4-amine]
